This data set in a line: TIMS collisional cross section (CCS, N2) of the lipid ion; higher = larger ion cross section. The note with it: ionization mode: negative, one isomer drawn. The method, then: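 Lipid extracts of human plasma (NIST SRM 1950), mouse liver or HeLa cells were separated by nanoflow C18 LC (30 min gradient) and analysed by TIMS-PASEF on a timsTOF Pro. Ion mobility was calibrated with the Agilent tuning mix (negative mode ions) and converted to collisional cross sections (Mason–Schamp, N2).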

± gives the standard deviation of the averaged measurements.
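Note: lipids from MTBE extraction, five replicate injections per sample, 100 ms TIMS ramp spanning 0.6–1.95 Vs/cm², lipid identity assigned from PASEF MS/MS spectra.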

For `CCCCCCCC/C=C\CCCCCCCC(=O)O[C@H](CO/C=C\CCCCCCCCCCCC)COP(=O)([O-])OCC[N+](C)(C)C` [PC P- 14:0@_18:1], the “TIMS collisional cross section” value (sample type: Human plasma, ion (formula + adduct): [C40H78NO7P-CH3] 1-) is 267.3 Å².
As for `CCCCCC/C=C\CCCCCCCC(=O)O[C@H](CO/C=C\CCCCCCCCCCCCCC)COP(=O)([O-])OCC[N+](C)(C)C` [PC P- 16:0@_16:1], the “TIMS collisional cross section” value (sample type: Mouse Liver, ion (formula + adduct): [C40H78NO7P+OAcO] 1-) is recorded as 283.6 Å².
Regarding `CC/C=C\C/C=C\C/C=C\C/C=C\C/C=C\CCCC(=O)O[C@H](CO/C=C\CCCCCCCCCCCCCC)COP(=O)([O-])OCC[N+](C)(C)C` [PC P- 16:0@_20:5], the “TIMS collisional cross section” value was found to be 292.2 Å² (sample type: Human plasma, ion (formula + adduct): [C44H78NO7P+HCOO] 1-) and 275.1 Å² (sample type: Human plasma, ion (formula + adduct): [C44H78NO7P-CH3] 1-).
With `CCCCC/C=C\C/C=C\C/C=C\C/C=C\CCCCCC(=O)O[C@H](CO/C=C\CCCCCCCCCCCCCC)COP(=O)([O-])OCC[N+](C)(C)C` [PC P- 16:0@_22:4], the “TIMS collisional cross section” value (sample type: Human plasma, ion (formula + adduct): [C46H84NO7P-CH3] 1-) is on record as 282.5 Å².
Take `CC/C=C\C/C=C\C/C=C\C/C=C\C/C=C\C/C=C\CCC(=O)O[C@H](CO/C=C\CCCCCCCCCCCCCC)COP(=O)([O-])OCC[N+](C)(C)C` [PC P- 16:0@_22:6]: the “TIMS collisional cross section” value reads like this: (sample type: Human plasma, ion (formula + adduct): [C46H80NO7P+HCOO] 1-) 296.7 Å²; (sample type: Human plasma, ion (formula + adduct): [C46H80NO7P-CH3] 1-) 280.2 Å²; (sample type: Mouse Liver, ion (formula + adduct): [C46H80NO7P-CH3] 1-) 279.6 Å².
Consider `CCCCCCCCCCCCCC/C=C\OC[C@H](COP(=O)([O-])OCC[N+](C)(C)C)OC(=O)CCCCCCCCCCCCCCC` [PC P- 16:0_16:0], for which the “TIMS collisional cross section” value is reported as 287.8 Å² (sample type: Human plasma, ion (formula + adduct): [C40H80NO7P+HCOO] 1-) and 267.55 ± 2 Å² (sample type: Mouse Liver, ion (formula + adduct): [C40H80NO7P-CH3] 1-).
`CC/C=C\C/C=C\C/C=C\C/C=C\C/C=C\CCCC(=O)O[C@H](CO/C=C\CCCCCCCCCCCCCCCC)COP(=O)([O-])OCC[N+](C)(C)C` [PC P- 18:0@_20:5]: the “TIMS collisional cross section” value (sample type: Human plasma, ion (formula + adduct): [C46H82NO7P+HCOO] 1-) stood at 296.1 Å².
In the case of `CC/C=C\C/C=C\C/C=C\C/C=C\C/C=C\C/C=C\CCC(=O)O[C@H](CO/C=C\CCCCCCCCCCCCCCCC)COP(=O)([O-])OCC[N+](C)(C)C` [PC P- 18:0@_22:6], the “TIMS collisional cross section” value (sample type: Mouse Liver, ion (formula + adduct): [C48H84NO7P-CH3] 1-) came out at 285.8 Å².
In the case of `CCCCC/C=C\C/C=C\CCCCCCCC(=O)O[C@H](CO/C=C\CCCCCCCCCCCCCCCCCC)COP(=O)([O-])OCC[N+](C)(C)C` [PC P- 20:0@_18:2], the “TIMS collisional cross section” value (sample type: Human plasma, ion (formula + adduct): [C46H88NO7P-CH3] 1-) is on record as 285.4 Å².
Turning to `CC/C=C\C/C=C\C/C=C\C/C=C\C/C=C\C/C=C\CCC(=O)O[C@H](COC(=O)CCCCCCCCCCCCCC)COP(=O)(O)OCCN` [PE 15:0_22:6], the “TIMS collisional cross section” value (sample type: Mouse Liver, ion (formula + adduct): [C42H72NO8P-H] 1-) is recorded as 271.6 Å².
Regarding `CC/C=C\C/C=C\C/C=C\C/C=C\C/C=C\C/C=C\CCC(=O)OC(COC(=O)CCCCCCCCCCCCCCC)COP(=O)(O)OCCN` (stereo not given) [PE 16:0@_22:6], for the setting “sample type: Human plasma, ion (formula + adduct): [C43H74NO8P-H] 1-”, the “TIMS collisional cross section” value was found to be 275 Å².
`CCCCCCCCCCCCCCCC(=O)OCC(COP(=O)(O)OCCN)OC(=O)CCCCCCCCCCCCCCC` (stereo not given) [PE 16:0_16:0]: where the note is “sample type: Mouse Liver, ion (formula + adduct): [C37H74NO8P-H] 1-”, the “TIMS collisional cross section” value turned out to be 263.3 Å².
For `CCCCCCCC/C=C\CCCCCCCC(=O)OC(COC(=O)CCCCCCCCCCCCCCC)COP(=O)(O)OCCN` (stereo not given) [PE 16:0_18:1], the “TIMS collisional cross section” value (sample type: Human plasma, ion (formula + adduct): [C39H76NO8P-H] 1-) is reported as 268.4 Å² and the “TIMS collisional cross section” value (sample type: Mouse Liver, ion (formula + adduct): [C39H76NO8P-H] 1-) was 268.4 Å².
Regarding `CCCCC/C=C\C/C=C\CCCCCCCC(=O)OC(COC(=O)CCCCCCCCCCCCCCC)COP(=O)(O)OCCN` (stereo not given) [PE 16:0_18:2], the “TIMS collisional cross section” value is, setting by setting: (sample type: Human plasma, ion (formula + adduct): [C39H74NO8P-H] 1-) 266.6 Å²; (sample type: Mouse Liver, ion (formula + adduct): [C39H74NO8P-H] 1-) 266.6 Å².

(Values after the supplement of paper PMC6965134.)
